Measurements: EP1715059A1, “Method for the identification of possibly harmful receptor tyrosine kinase (RTK) mutations and of inhibitors or medication directed against RTK mutants” (Esbatech AG, priority 2005, dated 2006)
Counter-ions that a name gives are not always drawn. Like-named read-outs stand apart in the source and are kept apart here.

How the values were obtained:
[1] = system: HMC-1 cells; details: literature (23); cited from earlier work
[2] = molecular target: T1, KIT mutant D816Y (Homo sapiens, UniProt P10721, D816Y); assay: Yeast cell-based growth rescue assay, KIT mutant; details: 0.2 to 100 µM; yeast strain RLY09/Δptp1; PD180970 effect at the highest concentrations
T1 construct: preferably cytoplasmic domains of RTKs or fragments thereof, are expressed in the cytoplasm of host cells; expressed in transfected cells; host or cells: S. cerevisiae RLY09/Δptp1
Text: (§1) Expression of wild-type KIT confers only a slight slow growth phenotype in yeast (in the RLY07 strain, under the full-length GAL promoter). Various mutations that occur in human GISTs or in mastocytosis were introduced in the Kit construct expressed in yeast. Expression of the various mutants caused reduced yeast growth but in various extent, likely correlating with various extent of activity (see graphs Figures 7a and 7b) . […] The yeast strain expressing the various Kit proteins in this experiment, was […] which all the Kit proteins produce a similar slow growth phenotype (see values of the window vector/RTK). The starting OD was optimized to obtain windows as similar as possible.

[3] = molecular target: T2, KIT mutant D816V (Homo sapiens, UniProt P10721, D816V); assay: Yeast cell-based growth rescue assay, KIT mutant; details: 0.2 to 100 µM; yeast strain RLY09/Δptp1; PD180970 effect at the highest concentrations
T2 construct: preferably cytoplasmic domains of RTKs or fragments thereof, are expressed in the cytoplasm of host cells; expressed in transfected cells; host or cells: S. cerevisiae RLY09/Δptp1
Text: as §1

[4] = molecular target: T3, KIT mutant D816F (Homo sapiens, UniProt P10721, D816F); assay: Yeast cell-based growth rescue assay, KIT mutant; details: 0.2 to 100 µM; yeast strain RLY09/Δptp1; PD180970 effect at the highest concentrations
T3 construct: preferably cytoplasmic domains of RTKs or fragments thereof, are expressed in the cytoplasm of host cells; expressed in transfected cells; host or cells: S. cerevisiae RLY09/Δptp1
Text: as §1

[5] = molecular target: D816V mutation (Homo sapiens, UniProt P10721, D816V); details: literature (29), cited from earlier work
[6] = system: HMC1.1; details: human cell line HMC1.1 expressing V560G mutation; literature (29); cited from earlier work
[7] = system: PDGFR-β; assay: Yeast growth assay, selection of specific RTK inhibition (OD 600 nm); format: cell-based, human; details: 50 µM in the yeast culture
Text: (§2) Selection of specific inhibition of Receptor Tyrosine Kinase activity in yeast.

[8] = molecular target: T4, RET (Homo sapiens, UniProt P07949); assay: as above; format: cell-based; details: 50 µM in the yeast culture
T4 construct: preferably cytoplasmic domains of RTKs or fragments thereof, are expressed in the cytoplasm of host cells; expressed in transfected cells; host or cells: yeast (S. cerevisiae)
T4 sequence (P07949 658-1114 limits assumed): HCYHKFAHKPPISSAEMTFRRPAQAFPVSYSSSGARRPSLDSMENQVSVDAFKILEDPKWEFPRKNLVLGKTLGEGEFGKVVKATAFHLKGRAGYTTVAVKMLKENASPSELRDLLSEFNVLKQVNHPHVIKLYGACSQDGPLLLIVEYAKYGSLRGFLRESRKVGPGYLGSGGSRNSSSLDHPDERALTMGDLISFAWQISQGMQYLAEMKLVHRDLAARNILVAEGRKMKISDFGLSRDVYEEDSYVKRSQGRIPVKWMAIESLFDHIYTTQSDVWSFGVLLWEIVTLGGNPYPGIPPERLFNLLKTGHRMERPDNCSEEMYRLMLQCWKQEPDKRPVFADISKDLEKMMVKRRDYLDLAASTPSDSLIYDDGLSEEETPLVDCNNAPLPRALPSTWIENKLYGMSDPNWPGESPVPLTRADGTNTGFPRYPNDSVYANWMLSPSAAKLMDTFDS
Text: as §2

[9] = molecular target: N822H (Homo sapiens, UniProt P10721, N822H); details: like wt KIT, literature (25); cited from earlier work
[10] = molecular target: K642E (Homo sapiens, UniProt P10721, K642E); details: like wt KIT, literature (25); cited from earlier work
[11] = patients with nonsmall cell lung cancer; cited from earlier work

Chain of D816V mutation (P10721 26-976 D816V): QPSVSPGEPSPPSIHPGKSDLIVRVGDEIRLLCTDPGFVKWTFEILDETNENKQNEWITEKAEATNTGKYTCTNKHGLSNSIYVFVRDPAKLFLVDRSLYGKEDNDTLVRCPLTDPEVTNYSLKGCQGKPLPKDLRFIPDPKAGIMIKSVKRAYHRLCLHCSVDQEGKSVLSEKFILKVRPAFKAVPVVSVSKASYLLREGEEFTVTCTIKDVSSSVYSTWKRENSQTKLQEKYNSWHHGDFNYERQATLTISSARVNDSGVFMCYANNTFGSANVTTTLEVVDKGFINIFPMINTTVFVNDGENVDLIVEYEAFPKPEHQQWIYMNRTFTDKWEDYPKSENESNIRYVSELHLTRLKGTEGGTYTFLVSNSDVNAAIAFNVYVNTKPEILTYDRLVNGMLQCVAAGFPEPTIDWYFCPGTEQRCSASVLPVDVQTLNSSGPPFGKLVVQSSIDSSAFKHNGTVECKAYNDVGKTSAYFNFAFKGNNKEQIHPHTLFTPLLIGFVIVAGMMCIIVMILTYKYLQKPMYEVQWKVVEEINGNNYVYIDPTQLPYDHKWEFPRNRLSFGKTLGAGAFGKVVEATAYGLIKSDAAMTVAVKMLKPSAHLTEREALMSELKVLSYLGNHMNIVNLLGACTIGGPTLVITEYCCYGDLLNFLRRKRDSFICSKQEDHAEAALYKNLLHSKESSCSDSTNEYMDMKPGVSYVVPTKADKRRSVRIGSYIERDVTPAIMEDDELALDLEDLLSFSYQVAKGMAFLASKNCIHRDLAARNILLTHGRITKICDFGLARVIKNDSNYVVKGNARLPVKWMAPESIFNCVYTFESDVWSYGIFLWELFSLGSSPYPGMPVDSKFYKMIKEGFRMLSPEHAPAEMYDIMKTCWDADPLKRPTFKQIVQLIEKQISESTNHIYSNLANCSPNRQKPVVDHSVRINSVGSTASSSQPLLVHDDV
T1 sequence (P10721 546-976 D816Y limits assumed): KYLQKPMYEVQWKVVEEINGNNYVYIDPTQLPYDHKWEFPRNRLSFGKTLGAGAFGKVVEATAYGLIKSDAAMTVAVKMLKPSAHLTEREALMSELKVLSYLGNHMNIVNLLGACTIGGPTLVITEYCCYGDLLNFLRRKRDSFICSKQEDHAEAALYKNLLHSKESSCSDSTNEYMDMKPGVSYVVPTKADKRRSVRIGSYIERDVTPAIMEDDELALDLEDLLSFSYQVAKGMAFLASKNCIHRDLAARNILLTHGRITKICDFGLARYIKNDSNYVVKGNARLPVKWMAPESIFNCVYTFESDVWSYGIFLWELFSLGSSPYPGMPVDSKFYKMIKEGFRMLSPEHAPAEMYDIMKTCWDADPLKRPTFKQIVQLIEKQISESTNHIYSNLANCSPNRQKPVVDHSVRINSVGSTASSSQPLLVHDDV
T3 sequence (P10721 546-976 D816F limits assumed): as the sequence (P10721 546-976 D816Y limits assumed) above, with Y271F counted along it
T2 sequence (P10721 546-976 D816V limits assumed): as the sequence (P10721 546-976 D816Y limits assumed) above, with Y271V counted along it
Chain of K642E (P10721 26-976 K642E): as the sequence (P10721 26-976 D816V) above, with K617E, V791D counted along it
Chain of N822H (P10721 26-976 N822H): as the sequence (P10721 26-976 D816V) above, with V791D, N797H counted along it

Structure (SMILES) | KIT phosphorylation [1] | cell proliferation [1] | sensitivity of mutant D816Y in yeast (growth rescue) [2] | sensitivity of mutant D816V in yeast (growth rescue) [3] | sensitivity of mutant D816F in yeast (growth rescue) [4] | resistance of D816V mutant to inhibitor [5] | apoptosis [6] | restores growth of PDGFR-β-expressing yeast cells [7] | restores growth of cells expressing RET [8] | sensitive in vitro (concentration) [9] [nM] | resistance of D816V mutant to inhibitor ([5]; listed as STI571) | sensitive in vitro (concentration) [10] [nM] | patients have a rapid and often dramatic clinical response [11] [%]
Cc1cc(Nc2ncc3cc(-c4c(Cl)cccc4Cl)c(=O)n(C)c3n2)ccc1F [PD180970] | inhibits | inhibits | slight effect | slight effect | slight effect | resistant | – | – | – | – | – | – | –
Cc1ccc(NC(=O)c2ccc(CN3CCN(C)CC3)cc2)cc1Nc1nccc(-c2cccnc2)n1 [Gleevec, imatinib mesylate] | – | – | resistant | resistant | resistant | resistant | induce apoptosis | specifically restores growth | not growth of cells expressing RET | 100 to 200 | resistance | 100 to 200 | –
COc1cc2ncnc(Nc3ccc(F)c(Cl)c3)c2cc1OCCCN1CCOCC1 [gefitinib] | – | – | – | – | – | – | – | – | – | – | – | – | 10
